Values of other authors in patent publication US10098891B2, “Highly concentrated stable meloxicam solutions for needleless injection” (BOEHRINGER INGELHEIM VETMEDICA GMBH, priority 2001, dated 2018).

Settings: aqueous solution

SMILES: Cc1cnc(NC(=O)C2=C(O)c3ccccc3S(=O)(=O)N2C)s1 [meloxicam, 4-hydroxy-2-methyl-N-(5-methyl-2-thiazolyl)-2H-1,2-benzothiazine-3-carboxamide-1,1-dioxide]
- solubility in water: does not dissolve readily in water
